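Assay format: 96-well plates, 48-hour exposure. The concentration for full growth arrest is given as TGI.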

This is an account of results in PubChem BioAssay (NCI).

Among the test systems are MOLT-4 leukemia; SF-539 CNS; MDA-MB-231 breast; MCF7 breast; DU-145 prostate; OVCAR-8 ovarian; SK-OV-3 ovarian; U251 CNS; RPMI-8226 leukemia; CCRF-CEM leukemia.
Common to all, as to experiment: NCI-60 cell line screen, 48 h

In the case of `CCOc1cc(/C=C2\N=C(c3ccccc3)N(c3nc4ccccc4s3)C2=O)ccc1O`, the TGI with MOLT-4 leukemia was 58.9 µM; with SF-539 CNS it was above 100 µM; in the assay on MDA-MB-231 breast it was above 100 µM; in the assay on MCF7 breast it was above 100 µM; in the assay with DU-145 prostate, above 100 µM; in the assay on OVCAR-8 ovarian it was above 100 µM. Also, the TGI is above 100 µM in the assay on SK-OV-3 ovarian, above 100 µM in the assay with U251 CNS, 65.4 µM in the assay on RPMI-8226 leukemia and above 100 µM with CCRF-CEM leukemia.
In the case of `C=C(C1=CC(=O)C(C)(C)O1)[C@@H]1CC=C([C@@H]2CC[C@H]3[C@@]2(C)CC[C@H]2C(C)(C)C(=O)[C@H](OC(=O)CC(C)(O)CC(=O)O)C[C@]32C)[C@H](O)O1` (stereo not given in full), the TGI in the assay on MOLT-4 leukemia was determined as 30.8 µM; in the assay on SF-539 CNS, 24.7 µM; in the assay on MDA-MB-231 breast, 35.8 µM; with MCF7 breast it was 20.9 µM; in the assay with DU-145 prostate, 45.6 µM; with OVCAR-8 ovarian, 29.1 µM. Further, the TGI is 46.9 µM with SK-OV-3 ovarian, 25.2 µM in the assay with U251 CNS, 5.24 µM in the assay on RPMI-8226 leukemia and 6.12 µM in the assay on CCRF-CEM leukemia.
